The source of these data is the NIST ThermoML archive (doi:10.1016/j.fluid.2013.10.022).

The conditions of data set [1]: 298.2 K; 101.33 kPa; Liquid; Vibrating tube method.
Data set [2] is described as follows: refractive index (Na D-line) (dimensionless). To be noted: 298.2 K; 101.33 kPa; Liquid; Standard Abbe refractometry.

SMILES strings stand for the structures. Numbers after ± are expanded uncertainties.

For orientation: mass density means mass per unit of volume. For orientation: refractive index means a measure of how strongly the sample bends light.

On to `CCCCC(CC)CO` (configuration not stated) [2-ethyl-1-hexanol], for which the mass density in data set [1] is given as 830.22 ± 0.24 kg/m3. Moreover, the refractive index in data set [2] is 1.4293 ± 0.0008.

As for `CCCC(=O)O` [butanoic acid], the mass density in data set [1] is 952.68 ± 0.23 kg/m3. The refractive index in data set [2] was found to be 1.3977 ± 0.0008.

As to `CCCCCCCCO` [octan-1-ol], the mass density in data set [1] is given as 821.69 ± 0.24 kg/m3. Further, the refractive index in data set [2] amounted to 1.4276 ± 0.0008.

With `O` [water], the refractive index in data set [2] is given as 1.3324 ± 0.0008.
